From US8691865B2 (AbbVie Inc., priority 2008, dated 2014) come the findings set out here.

Sequence of human Cav2.2 (Q00975 whole entry): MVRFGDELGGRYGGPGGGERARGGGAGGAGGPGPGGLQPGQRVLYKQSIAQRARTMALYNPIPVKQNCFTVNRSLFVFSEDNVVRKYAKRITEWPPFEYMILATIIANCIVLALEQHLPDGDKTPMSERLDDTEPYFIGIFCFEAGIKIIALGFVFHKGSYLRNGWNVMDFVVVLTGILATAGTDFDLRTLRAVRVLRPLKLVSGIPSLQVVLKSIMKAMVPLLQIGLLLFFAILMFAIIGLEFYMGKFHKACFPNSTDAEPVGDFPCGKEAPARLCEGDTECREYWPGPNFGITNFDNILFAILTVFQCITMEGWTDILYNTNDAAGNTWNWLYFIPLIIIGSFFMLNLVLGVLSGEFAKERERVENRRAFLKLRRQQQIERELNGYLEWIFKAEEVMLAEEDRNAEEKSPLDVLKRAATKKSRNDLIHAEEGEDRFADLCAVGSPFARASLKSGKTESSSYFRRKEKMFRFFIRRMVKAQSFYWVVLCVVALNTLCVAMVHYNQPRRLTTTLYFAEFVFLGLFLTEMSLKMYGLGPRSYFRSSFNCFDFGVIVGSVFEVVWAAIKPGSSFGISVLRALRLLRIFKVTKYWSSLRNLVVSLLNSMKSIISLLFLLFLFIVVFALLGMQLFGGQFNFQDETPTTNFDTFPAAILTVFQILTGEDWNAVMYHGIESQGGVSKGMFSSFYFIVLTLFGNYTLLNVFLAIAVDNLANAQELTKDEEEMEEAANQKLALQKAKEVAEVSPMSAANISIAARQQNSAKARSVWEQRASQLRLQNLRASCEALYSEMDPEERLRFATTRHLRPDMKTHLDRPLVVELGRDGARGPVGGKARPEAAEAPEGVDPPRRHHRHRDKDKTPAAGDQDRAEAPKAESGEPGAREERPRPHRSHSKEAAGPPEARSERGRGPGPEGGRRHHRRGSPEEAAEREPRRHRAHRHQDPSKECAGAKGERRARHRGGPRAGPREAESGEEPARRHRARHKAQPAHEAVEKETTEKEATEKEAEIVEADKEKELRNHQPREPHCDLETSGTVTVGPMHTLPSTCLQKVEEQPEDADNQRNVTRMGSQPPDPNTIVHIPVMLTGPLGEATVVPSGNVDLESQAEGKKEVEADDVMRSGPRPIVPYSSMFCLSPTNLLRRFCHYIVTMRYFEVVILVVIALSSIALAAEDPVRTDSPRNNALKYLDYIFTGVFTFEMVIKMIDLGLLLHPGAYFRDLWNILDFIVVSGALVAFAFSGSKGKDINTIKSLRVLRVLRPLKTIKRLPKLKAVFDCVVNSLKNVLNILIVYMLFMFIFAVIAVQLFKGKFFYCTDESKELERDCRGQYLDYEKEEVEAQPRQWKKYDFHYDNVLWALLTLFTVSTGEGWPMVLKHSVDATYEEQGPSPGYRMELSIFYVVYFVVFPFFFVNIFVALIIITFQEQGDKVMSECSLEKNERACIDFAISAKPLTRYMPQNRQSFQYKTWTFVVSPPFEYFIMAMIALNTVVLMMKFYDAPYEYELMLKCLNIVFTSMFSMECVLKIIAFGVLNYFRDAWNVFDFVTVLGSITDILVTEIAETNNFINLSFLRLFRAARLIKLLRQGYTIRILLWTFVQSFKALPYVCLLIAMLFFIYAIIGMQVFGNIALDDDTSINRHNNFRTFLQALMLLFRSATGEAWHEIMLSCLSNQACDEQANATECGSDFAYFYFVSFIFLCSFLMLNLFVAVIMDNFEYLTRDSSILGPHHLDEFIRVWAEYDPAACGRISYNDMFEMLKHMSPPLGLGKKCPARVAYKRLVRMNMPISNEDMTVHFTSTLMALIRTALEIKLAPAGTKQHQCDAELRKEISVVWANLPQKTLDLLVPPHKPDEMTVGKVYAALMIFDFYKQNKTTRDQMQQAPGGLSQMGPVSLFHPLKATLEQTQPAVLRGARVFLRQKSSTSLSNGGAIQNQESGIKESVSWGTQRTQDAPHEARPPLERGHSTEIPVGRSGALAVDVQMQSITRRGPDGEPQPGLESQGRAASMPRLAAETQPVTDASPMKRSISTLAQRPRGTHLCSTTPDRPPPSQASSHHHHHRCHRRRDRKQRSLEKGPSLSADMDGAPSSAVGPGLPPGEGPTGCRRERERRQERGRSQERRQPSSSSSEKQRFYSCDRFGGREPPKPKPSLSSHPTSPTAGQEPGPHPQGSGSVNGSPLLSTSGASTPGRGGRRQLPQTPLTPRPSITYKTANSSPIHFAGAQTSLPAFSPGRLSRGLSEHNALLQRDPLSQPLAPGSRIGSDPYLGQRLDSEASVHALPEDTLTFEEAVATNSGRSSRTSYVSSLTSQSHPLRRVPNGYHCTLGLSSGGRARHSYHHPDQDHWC
Sequence of human Cav2.2 (P54289 25-956 partner limits assumed): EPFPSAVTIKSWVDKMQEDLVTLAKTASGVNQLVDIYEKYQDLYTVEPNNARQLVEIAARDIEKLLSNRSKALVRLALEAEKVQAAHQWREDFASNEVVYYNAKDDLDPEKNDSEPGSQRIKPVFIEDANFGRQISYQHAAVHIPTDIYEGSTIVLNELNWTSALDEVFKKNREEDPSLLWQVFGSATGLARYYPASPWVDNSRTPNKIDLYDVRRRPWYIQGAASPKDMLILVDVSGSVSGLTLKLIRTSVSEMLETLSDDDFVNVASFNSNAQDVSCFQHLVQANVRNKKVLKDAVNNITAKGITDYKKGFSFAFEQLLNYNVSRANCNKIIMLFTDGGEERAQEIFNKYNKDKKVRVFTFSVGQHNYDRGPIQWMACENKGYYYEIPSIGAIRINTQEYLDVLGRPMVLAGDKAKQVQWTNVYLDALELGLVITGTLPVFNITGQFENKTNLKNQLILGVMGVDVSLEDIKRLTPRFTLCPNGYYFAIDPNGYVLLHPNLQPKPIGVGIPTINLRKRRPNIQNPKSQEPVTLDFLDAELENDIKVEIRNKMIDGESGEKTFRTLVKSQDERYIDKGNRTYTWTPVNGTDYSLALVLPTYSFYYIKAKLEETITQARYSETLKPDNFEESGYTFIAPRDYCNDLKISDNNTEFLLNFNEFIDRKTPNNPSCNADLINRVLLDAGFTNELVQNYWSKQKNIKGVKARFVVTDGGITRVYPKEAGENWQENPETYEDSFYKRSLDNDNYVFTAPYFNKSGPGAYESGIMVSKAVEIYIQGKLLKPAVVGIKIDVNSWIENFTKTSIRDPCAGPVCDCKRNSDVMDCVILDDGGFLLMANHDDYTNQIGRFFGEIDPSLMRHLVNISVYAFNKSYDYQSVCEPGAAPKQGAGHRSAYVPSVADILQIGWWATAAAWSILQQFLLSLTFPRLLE
Sequence of human Cav2.2 (P54289 957-1103 partner limits assumed): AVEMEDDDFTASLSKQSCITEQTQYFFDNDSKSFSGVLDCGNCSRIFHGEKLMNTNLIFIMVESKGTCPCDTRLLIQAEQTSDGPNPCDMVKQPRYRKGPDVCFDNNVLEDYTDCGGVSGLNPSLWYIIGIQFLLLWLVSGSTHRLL
Sequence of human Cav2.2 (P54284 whole entry partner): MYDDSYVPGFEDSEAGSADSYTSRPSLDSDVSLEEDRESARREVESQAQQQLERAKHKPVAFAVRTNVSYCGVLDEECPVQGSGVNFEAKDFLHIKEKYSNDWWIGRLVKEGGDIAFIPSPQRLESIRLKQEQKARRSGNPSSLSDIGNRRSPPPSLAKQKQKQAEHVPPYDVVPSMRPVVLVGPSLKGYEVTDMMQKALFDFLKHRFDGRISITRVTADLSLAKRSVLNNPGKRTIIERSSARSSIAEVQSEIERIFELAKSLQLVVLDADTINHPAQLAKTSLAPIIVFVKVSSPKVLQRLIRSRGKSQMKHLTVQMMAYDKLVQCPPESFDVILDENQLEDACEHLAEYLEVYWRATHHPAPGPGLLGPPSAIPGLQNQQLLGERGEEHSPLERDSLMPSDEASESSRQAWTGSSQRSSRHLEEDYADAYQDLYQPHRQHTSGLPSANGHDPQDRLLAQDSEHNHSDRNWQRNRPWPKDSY

One experiment addresses human Cav2.2 (Homo sapiens, UniProt Q00975). The experiment is described as follows: Assessment of calcium channel activity using FLIPR (Ca2+ influx in IMR32 cells). In kind it is cell-based.
Details: not given
The procedure:
(i) In Vitro Methods—Assessment of Calcium Channel Activity Using FLIPR:
The IMR32 cells were maintained in MEM media containing 10% (v/v) FBS, 1% (v/v) antibiotic/antimitotic, 1% (v/v) sodium pyruvate and 1% (v/v) MEM NEAA. Following dissociation in 0.05% (v/v) trypsin/EDTA, cells were seeded into black 1×96-well plates (Corning Cellbind) at a density of 1−1.2×10^5 cells/well and incubated in the maintenance media above for 48 hours at 37° C. […] To determine the IC50 values, the percent inhibition of the compound at each concentration was determined relative to the activity in the absence of inhibitor, and data was fitted using non-linear regression sigmoidal dose response curve analysis with GraphPad Prism®.
On to `O=C(N[C@H]1CC[C@H]2CN(Cc3ccc(F)cc3)C[C@H]21)C(C1CCCCC1)C1CCCCC1` [Example 56, 2,2-dicyclohexyl-N-[(3aS,4S,6aR)-2-(4-fluorobenzyl)octahydrocyclopenta[c]pyrrol-4-yl]acetamide], for which the IC50 was 0.74 µM. As for `Cc1ccc(CN[C@H]2CC[C@@H]3CN(c4cccc(C(F)(F)F)n4)C[C@@H]32)cc1` [Example 649, (3aR,4S,6aS)-N-(4-methylbenzyl)-2-[6-(trifluoromethyl)pyridin-2-yl]octahydrocyclopenta[c]pyrrol-4-amine], the IC50 came to 0.41 µM. As for `CC(C)C[C@@H](C(=O)N[C@@H]1CC[C@H]2CN(Cc3ccccc3)C[C@H]21)N1CCOCC1` [Example 249, (2S)-N-[(3aS,4R,6aR)-2-benzyloctahydrocyclopenta[c]pyrrol-4-yl]-4-methyl-2-morpholin-4-ylpentanamide], the IC50 is over 30 µM. Regarding `COc1ccc2[nH]c(CN[C@H]3CC[C@@H]4CN(c5cccc(C(F)(F)F)n5)C[C@@H]43)c(C)c2c1` [Example 668, (3aR,4S,6aS)-N-[(5-methoxy-3-methyl-1H-indol-2-yl)methyl]-2-[6-(trifluoromethyl)pyridin-2-yl]octahydrocyclopenta[c]pyrrol-4-amine], the IC50 stood at 1.55 µM. Turning to `O=C(N[C@H]1CC[C@@H]2CN(c3cccc(C(F)(F)F)n3)C[C@@H]21)c1cccc(F)c1` [Example 564, 3-fluoro-N-{(3aR,4S,6aS)-2-[6-(trifluoromethyl)pyridin-2-yl]octahydrocyclopenta[c]pyrrol-4-yl}benzamide], the IC50 is 0.34 µM. Turning to `O=C(N[C@@H]1CC[C@H]2CN(CCCCCC(c3ccc(F)cc3)c3ccc(F)cc3)C[C@H]21)C(C1CCCCC1)C1CCCCC1` [Example 78, N-{(3aS,4R,6aR)-2-[6,6-bis(4-fluorophenyl)hexyl]octahydrocyclopenta[c]pyrrol-4-yl}-2,2-dicyclohexylacetamide], the IC50 worked out at 1.34 µM. The same measure, in the same setting: then `CC(C)CN[C@H]1CC[C@@H]2CN(c3cccc(C(F)(F)F)n3)C[C@@H]21` [Example 610, (3aR,4S,6aS)-N-isobutyl-2-[6-(trifluoromethyl)pyridin-2-yl]octahydrocyclopenta[c]pyrrol-4-amine], with 2.01 µM; and `CCC[C@H](N)C(=O)N[C@H]1CC[C@@H]2CN(S(=O)(=O)c3ccc(C(F)(F)F)cc3)C[C@@H]21` [Example 422, N^1-((3aR,4S,6aS)-2-{[4-(trifluoromethyl)phenyl]sulfonyl}octahydrocyclopenta[c]pyrrol-4-yl)-L-norvalinamide], with 7.83 µM.

As to `CC(C)(C)NC(=O)N[C@H]1CC[C@@H]2CN(c3cccc(OC(F)(F)F)c3)C[C@@H]21` [Example 779, 1-tert-butyl-3-{(3aR,4S,6aS)-2-[3-(trifluoromethoxy)phenyl]octahydrocyclopenta[c]pyrrol-4-yl}urea], the half-maximal inhibitory concentration (IC50) amounted to 1.86 µM.

Consider `O=C(N[C@H]1CC[C@@H]2CN(c3cccc(C(F)(F)F)n3)C[C@@H]21)c1cccc(O)c1` [Example 577, 3-hydroxy-N-{(3aR,4S,6aS)-2-[6-(trifluoromethyl)pyridin-2-yl]octahydrocyclopenta[c]pyrrol-4-yl}benzamide], for which the IC50 worked out at 2.06 µM.

For the molecule `O=S(=O)(N[C@@H]1CC[C@@H]2CN(Cc3cccc(C(F)(F)F)c3)C[C@@H]21)c1cccc(C(F)(F)F)c1` [Example 188, 3-(trifluoromethyl)-N-{(3aR,4R,6aS)-2-[3-(trifluoromethyl)benzyl]octahydrocyclopenta[c]pyrrol-4-yl}benzenesulfonamide], the IC50 worked out at 0.85 µM. Take `CN[C@@H](CC(C)C)C(=O)N[C@H]1CC[C@H]2CN(Cc3ccccc3)C[C@H]21` [Example 360, N^1-[(3aS,4S,6aR)-2-benzyloctahydrocyclopenta[c]pyrrol-4-yl]-N^2-methyl-L-leucinamide]: the IC50 is over 30 µM.

Consider `O=S(=O)(N[C@H]1CC[C@@H]2CN(c3cccc(C(F)(F)F)n3)C[C@@H]21)c1ccc(F)c(Cl)c1` [Example 710, 3-chloro-4-fluoro-N-{(3aR,4S,6aS)-2-[6-(trifluoromethyl)pyridin-2-yl]octahydrocyclopenta[c]pyrrol-4-yl}benzenesulfonamide], for which the IC50 was found to be 5.56 µM. On to `FC(F)(F)c1cccc(N2C[C@H]3CC[C@H](NCc4nc(-c5ccccc5)[nH]c4Cl)[C@H]3C2)n1` [Example 726, (3aR,4S,6aS)-N-[(5-chloro-2-phenyl-1H-imidazol-4-yl)methyl]-2-[6-(trifluoromethyl)pyridin-2-yl]octahydrocyclopenta[c]pyrrol-4-amine], for which the IC50 came to 2.16 µM.

In the case of `CC(C)(C)C(C(=O)N[C@H]1CC[C@H]2CN(Cc3cccc(C(F)(F)F)c3)C[C@H]21)c1ccccc1` (relative stereo) [Example 123, 3,3-dimethyl-2-phenyl-N-{(3aS*,4S*,6aR*)-2-[3-(trifluoromethyl)benzyl]octahydrocyclopenta[c]pyrrol-4-yl}butanamide], the IC50 worked out at 0.57 µM. As to `Fc1ccc2[nH]c(CN[C@H]3CC[C@@H]4CN(c5ccc(OC(F)(F)F)cc5)C[C@@H]43)cc2c1` [Example 716, (3aR,4S,6aS)-N-[(5-fluoro-1H-indol-2-yl)methyl]-2-[4-(trifluoromethoxy)phenyl]octahydrocyclopenta[c]pyrrol-4-amine], the IC50 was 8.15 µM. `Fc1ccc(-c2n[nH]cc2CN[C@H]2CC[C@@H]3CN(c4cccc(C(F)(F)F)n4)C[C@@H]32)cc1` [Example 672, (3aR,4S,6aS)-N-{[3-(4-fluorophenyl)-1H-pyrazol-4-yl]methyl}-2-[6-(trifluoromethyl)pyridin-2-yl]octahydrocyclopenta[c]pyrrol-4-amine]: the IC50 stood at 1.65 µM. As for `O=C(N[C@H]1CC[C@@H]2CN(c3csc(C(F)F)c3)C[C@@H]21)[C@@H]1C[C@@H](F)CN1` [Example 655, (4R)-N-{(3aR,4S,6aS)-2-[5-(difluoromethyl)-3-thienyl]octahydrocyclopenta[c]pyrrol-4-yl}-4-fluoro-L-prolinamide], the IC50 turned out to be 19.6 µM. As to `CN[C@@H](CC(C)C)C(=O)N[C@H]1CC[C@@H]2CN(c3ccc(OC(F)(F)F)c(F)c3)C[C@@H]21` [Example 657, N-{(3aR,4S,6aS)-2-[3-fluoro-4-(trifluoromethoxy)phenyl]octahydrocyclopenta[c]pyrrol-4-yl}-N^2-methyl-L-leucinamide], the half-inhibitory concentration (IC50) stood at 1.8 µM.

For `Fc1ccc(-c2c[nH]c(CN[C@H]3CC[C@@H]4CN(c5cccc(C(F)(F)F)n5)C[C@@H]43)n2)cc1` [Example 744, (3aR,4S,6aS)-N-{[4-(4-fluorophenyl)-1H-imidazol-2-yl]methyl}-2-[6-(trifluoromethyl)pyridin-2-yl]octahydrocyclopenta[c]pyrrol-4-amine], the IC50 was determined as 1.21 µM. Turning to `CC(C)C[C@H](N[C@H]1CC[C@@H]2CN(c3cccc(C(F)(F)F)n3)C[C@@H]21)C(N)=O` [Example 706, N^2-{(3aR,4S,6aS)-2-[6-(trifluoromethyl)pyridin-2-yl]octahydrocyclopenta[c]pyrrol-4-yl}-L-leucinamide], the IC50 was found to be 1.12 µM.

The same experiment, now with this note: read-out: IC50 (μM) or percent inhibition (* indicates 3 minute incubation, otherwise 60 minute); IC50; 60 minute pre-incubation with compound; IMR32 cells, 80 mM KCl depolarization.
`C[C@H](C(=O)N[C@@H]1CC[C@H]2CN(Cc3ccccc3)C[C@H]21)c1cccc(C(=O)c2ccccc2)c1` (relative stereo) [Example 13, (2S)-2-(3-benzoylphenyl)-N-[(3aS*,4R*,6aR*)-2-benzyloctahydrocyclopenta[c]pyrrol-4-yl]propanamide]: the IC50 was 23.6 µM. For `CCC[C@H](NC1CCCC1)C(=O)N[C@H]1CC[C@@H]2CN(S(=O)(=O)c3ccc(C(F)(F)F)cc3)C[C@@H]21` [Example 506, N^2-cyclopentyl-N^1-((3aR,4S,6aS)-2-{[4-(trifluoromethyl)phenyl]sulfonyl}octahydrocyclopenta[c]pyrrol-4-yl)-L-norvalinamide], the IC50 is 1.71 µM. `CCC[C@H](NC)C(=O)N[C@H]1CC[C@@H]2CN(S(=O)(=O)c3cc(C(F)(F)F)cc(C(F)(F)F)c3)C[C@@H]21` [Example 538, N^1-((3aR,4S,6aS)-2-{[3,5-bis(trifluoromethyl)phenyl]sulfonyl}octahydrocyclopenta[c]pyrrol-4-yl)-N^2-methyl-L-norvalinamide]: the 50% inhibitory concentration (IC50) came out at 3.75 µM. For the molecule `CC(C)[C@@H](CC(=O)N[C@@H]1CC[C@H]2CN(S(=O)(=O)c3cccc(C(F)(F)F)c3)C[C@H]21)NC(=O)OC(C)(C)C` [Example 267, tert-butyl(1R)-1-isopropyl-3-oxo-3-[((3aS,4R,6aR)-2-{[3-(trifluoromethyl)phenyl]sulfonyl}octahydrocyclopenta[c]pyrrol-4-yl)amino]propylcarbamate], the half-inhibitory concentration (IC50) was 14.1 µM. As to `CCC[C@H](NC)C(=O)N[C@H]1CC[C@@H]2CN(S(=O)(=O)c3ccc(C(F)(F)F)cc3)C[C@@H]21` [Example 405, N^2-methyl-N^1-((3aR,4S,6aS)-2-{[4-(trifluoromethyl)phenyl]sulfonyl}octahydrocyclopenta[c]pyrrol-4-yl)-L-norvalinamide], the half-maximal inhibitory concentration (IC50) was 3.83 µM.

Take `CC(C)[C@H](N)CC(=O)N[C@@H]1CC[C@H]2CN(S(=O)(=O)c3cccc(C(F)(F)F)c3)C[C@H]21` [Example 397, (3R)-3-amino-4-methyl-N-((3aS,4R,6aR)-2-{[3-(trifluoromethyl)phenyl]sulfonyl}octahydrocyclopenta[c]pyrrol-4-yl)pentanamide]: the IC50 was 1.46 µM.

For the molecule `CC(C)C[C@@H](C(=O)N[C@H]1CC[C@H]2CN(Cc3cccc(C(F)(F)F)c3)C[C@H]21)N(C)C` [Example 509, N^2,N^2-dimethyl-N^1-{(3aS,4S,6aR)-2-[3-(trifluoromethyl)benzyl]octahydrocyclopenta[c]pyrrol-4-yl}-L-leucinamide], the IC50 amounted to 4.55 µM.
